# How the values were obtained:
# Test in all cases: relative viability (nuclei count vs DMSO), 5 days (fraction); higher = more cells survive
# [1] = compound: C[C@]1(O)C[C@@H](c2nc(-c3ccc4ccc(-c5ccccc5)nc4c3)c3c(N)nccn32)C1 [Linsitinib] + Nc1ncn([C@H]2C[C@H](O)[C@@H](CO)O2)c(=O)n1 [Decitabine] (partner 2 µM)
# In short: (§1)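 Lung cancer cell lines in 1536-well plates got either a single drug or a fixed anchor-drug dose together with five library-drug doses (not always all listed) in √10 steps, by pin tool, on the day after seeding. Nuclei were counted after 5 days, and relative viability is the treated-to-vehicle ratio of nuclei counts. Values are medians of duplicate plates.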
# [2] = compound: C[C@]1(O)C[C@@H](c2nc(-c3ccc4ccc(-c5ccccc5)nc4c3)c3c(N)nccn32)C1 [Linsitinib] + CCNC(=O)c1noc(-c2cc(C(C)C)c(O)cc2O)c1-c1ccc(CN2CCOCC2)cc1 [Luminespib] (partner 0.01 µM)
# In short: as §1
# [3] = compound: Cc1ccc(C(=O)N(CCCN)[C@@H](c2nc3cc(Cl)ccc3c(=O)n2Cc2ccccc2)C(C)C)cc1 [Ispinesib] + CS(=O)(=O)CCNCc1ccc(-c2ccc3ncnc(Nc4ccc(OCc5cccc(F)c5)c(Cl)c4)c3c2)o1 [Lapatinib] (partner 2 µM)
# In short: as §1
Cell Line,relative viability ([1]; first compound 0.01 µM),relative viability ([1]; first compound 0.03162 µM),relative viability ([1]; first compound 0.1 µM),relative viability ([1]; first compound 0.3162 µM),relative viability ([1]; first compound 1 µM),relative viability ([2]; first compound 0.01 µM),relative viability ([2]; first compound 0.03162 µM),relative viability ([2]; first compound 0.1 µM),relative viability ([2]; first compound 0.3162 µM),relative viability ([2]; first compound 1 µM),relative viability ([3]; first compound 0.001 µM),relative viability ([3]; first compound 0.003162 µM),relative viability ([3]; first compound 0.01 µM),relative viability ([3]; first compound 0.03162 µM),relative viability ([3]; first compound 0.1 µM)
LOU-NH91,0.813,0.806,0.803,0.715,0.782,0.357,0.355,0.299,0.244,0.298,0.785,0.799,0.779,0.447,0.271
LU99A,0.924,0.881,0.81,–,0.917,0.272,0.25,0.231,0.241,0.216,0.992,1.11,1.14,0.192,0.201
LXF-289,0.366,0.481,0.382,0.333,0.39,0.759,0.669,0.729,–,0.544,0.872,0.909,1.01,0.634,0.118
NCI-H23,0.305,0.314,0.322,0.264,0.298,0.218,0.207,0.211,0.219,0.203,0.915,1.16,1.04,0.245,0.293
NCI-H322M,0.68,0.818,0.719,0.757,0.674,0.946,0.444,0.856,0.698,0.658,0.654,0.585,0.616,0.438,0.319
NCI-H358,0.242,0.354,0.256,0.208,0.222,0.365,0.367,0.299,0.333,0.194,0.475,0.421,0.473,0.345,0.215
NCI-H441,0.246,0.26,0.223,0.212,0.257,0.296,0.327,0.211,0.245,0.281,–,–,–,–,–
NCI-H460,0.497,0.483,0.511,–,0.424,0.044,0.0373,0.033,0.0397,0.0347,1.1,1.23,1.39,0.335,0.0345
NCI-H520,0.456,0.59,0.501,–,0.555,0.21,0.195,0.241,–,0.208,0.996,0.825,0.322,0.217,0.261
NCI-H522,0.657,0.773,0.614,0.688,0.587,1.55,1.18,1.18,0.961,1.2,–,–,–,–,–
NCI-H596,1.03,1.06,1.11,0.976,1.01,1.16,0.991,1.2,0.862,0.867,0.978,1.18,1.02,0.897,0.402
NCI-H647,0.39,0.524,0.395,0.405,0.43,0.169,0.117,0.524,–,0.184,1.28,0.693,0.481,0.106,0.114
NCI-H650,0.313,0.396,0.287,–,0.306,0.774,0.919,0.877,0.66,0.669,0.89,1.17,0.638,0.34,0.23
NCI-H661,0.545,0.676,0.536,0.492,0.535,0.924,1.05,0.948,0.945,1.01,0.52,0.451,0.444,0.406,0.439
NCI-H727,0.671,1.05,0.752,0.58,0.63,0.323,0.207,0.346,0.268,0.288,–,0.81,0.809,0.426,0.29
NCI-H838,0.462,0.581,0.452,0.284,0.405,0.411,0.211,0.278,–,0.235,1.08,1.09,1.31,0.183,0.26
NCI-H1299,–,–,–,–,–,–,–,–,–,–,1.02,0.988,0.979,0.813,0.3
NCI-H1355,0.378,0.353,0.334,0.309,0.317,0.761,0.685,0.618,0.616,0.587,1.09,0.93,1.22,0.644,0.3
NCI-H1395,0.691,–,0.777,0.695,0.702,0.672,0.585,0.616,0.63,0.732,1.1,1.11,0.779,0.545,0.33
NCI-H1437,0.541,0.551,0.555,0.4,0.599,1.1,1.12,1.22,1.1,1.19,0.98,0.928,0.901,0.419,0.206
NCI-H1563,–,–,–,–,–,0.599,0.607,0.51,0.486,0.525,1.03,0.956,0.928,0.686,0.624
NCI-H1623,–,–,–,–,–,0.43,0.483,0.5,–,0.307,–,–,–,–,–
NCI-H1648,0.468,0.445,0.428,0.377,0.46,–,–,–,–,–,–,–,–,–,–
NCI-H1703,–,–,–,–,–,–,–,–,–,–,1.32,0.893,0.227,0.11,0.234
NCI-H2228,–,–,–,–,–,0.138,0.179,0.214,0.145,0.139,1.23,1.29,1.26,0.363,0.422
NCI-H2342,0.765,0.78,0.732,0.688,0.75,0.662,0.754,0.702,0.714,0.536,–,–,–,–,–
SW 900,0.474,0.537,0.466,0.374,0.388,0.169,0.204,0.189,0.162,0.165,–,–,–,–,–

# Source: the supplement of paper PMC10307832
